Data taken from patent US8338517B2, “Aqueous compositions of fluorinated surfactants and methods of using the same” (3M Innovative Properties Company, priority 2007, dated 2012).

Experiment: Static surface tension of aqueous surfactant solutions (Kruss K-12 tensiometer, Du Nouy ring method)
Format: physicochemical
Details: 1000 ppm in water, 20° C.
Method: The solution from was diluted with water to a concentration of 1000 ppm.
The procedure of Preparation 1 was followed except using 16.3 grams of C3F7OCHFCF2COOCH3 instead of the CF3O(CF2)3OCHFCF2COOCH3 to prepare a solution of C3F7OCHFCF2COOK. This solution was diluted with water to a concentration of 1000 ppm.
Static surface tensions were measured on the solutions of Preparations 1 to 6 using a Kruss K-12 tensiometer (obtained from Kruss GmbH, Hamburg, Germany) using the Du Nouy ring method at 20° C.

**Q.** With `O=C([O-])C(F)(F)C(F)(F)C(F)(F)C(F)(F)C(F)(F)F.[K+]` [potassium perfluorohexanoate] as the molecule, how does the “Surface Tension” value read?
**A.** 58.5 mN/m
